# Experiments:
# [1] = test system: Gli-1 mRNA in Math1-Cre; ptch1-flox/flox cells; assay: qRT-PCR of Gli-1 mRNA in Math1-Cre; ptch1-flox/flox (PTCH -/-) cells treated ex vivo; format: cell-based, mouse; conditions: 10 μM ex vivo, 24 hours
# Protocol: An in vivo medulloblastoma model was established as described before. Briefly, 6–7 weeks old NOD-scid IL-2Rg null (NSG) mice (the Jackson Laboratory) were anesthetized with xylazine-ketamine, and […]. Dissociated Math1-Cre; ptch1-flox/flox cells (1×10^6 cells in 4 μL HBSS)[58] were injected into the mouse brains using murine stereotaxic system (Stoelting Co). The coordinates were: 1.8mm to the right of bregma and 3mm deep from the dura. To disassociate the orthotopic tumor into the single cells for the serial implantation or the ex-vivo experiment, the tumor was dissected from the cerebellum, followed by digestion using Papain (10 U per mL), DNase (250 U) and L-cystein (2 mg) at 37°C for 30 min.
# Both post-vivo MB-PDX cells and Math1-Cre; ptch1-flox/flox cells were analyzed for Gli-1 mRNA expression. For that, total RNA was extracted from dissociated single cells using QIAGEN RNease Mini Kit and cDNA was prepared using 1μg RNA with iScript cDNA Synthesis Kit (Bio-Rad). SYBR green-based QPCR was performed using murine primers listed as below (GLI1, Forward 5’- […]-3’, Reverse 5’-[…]-3’, GAPDH Forward 5'-[…] -3', Reverse 5'-[…]-3'). mRNA levels were normalized to GAPDH (dCt = Ct gene of interest–Ct GAPDH) and reported as relative mRNA expression (ddCt = 2-^(dCt sample–dCt control)) in fold change.
# MB-PDX cells = assay: cells; conditions: Homo sapiens, 72 h, read-out: Cell viability assay IC50
# [2] = biological target: Carbonic anhydrase 9 (CAH9_HUMAN); conditions: S2/S3 Table; ref [2] Parkkila S et al., Bioorg Med Chem Lett. 2009; cited from earlier work
# [3] = cited from earlier work
# mSMO = biological target: T1, mSMO (Mus musculus, UniProt P56726); assay: BODIPY-Cyclopamine competition binding assay, flow cytometry, HEK293T cells transiently transfected with mSMO; conditions: BODIPY-Cyclopamine 5 nM
# T1 construct: host or cells: HEK293T
# T1 sequence (P56726 33-793): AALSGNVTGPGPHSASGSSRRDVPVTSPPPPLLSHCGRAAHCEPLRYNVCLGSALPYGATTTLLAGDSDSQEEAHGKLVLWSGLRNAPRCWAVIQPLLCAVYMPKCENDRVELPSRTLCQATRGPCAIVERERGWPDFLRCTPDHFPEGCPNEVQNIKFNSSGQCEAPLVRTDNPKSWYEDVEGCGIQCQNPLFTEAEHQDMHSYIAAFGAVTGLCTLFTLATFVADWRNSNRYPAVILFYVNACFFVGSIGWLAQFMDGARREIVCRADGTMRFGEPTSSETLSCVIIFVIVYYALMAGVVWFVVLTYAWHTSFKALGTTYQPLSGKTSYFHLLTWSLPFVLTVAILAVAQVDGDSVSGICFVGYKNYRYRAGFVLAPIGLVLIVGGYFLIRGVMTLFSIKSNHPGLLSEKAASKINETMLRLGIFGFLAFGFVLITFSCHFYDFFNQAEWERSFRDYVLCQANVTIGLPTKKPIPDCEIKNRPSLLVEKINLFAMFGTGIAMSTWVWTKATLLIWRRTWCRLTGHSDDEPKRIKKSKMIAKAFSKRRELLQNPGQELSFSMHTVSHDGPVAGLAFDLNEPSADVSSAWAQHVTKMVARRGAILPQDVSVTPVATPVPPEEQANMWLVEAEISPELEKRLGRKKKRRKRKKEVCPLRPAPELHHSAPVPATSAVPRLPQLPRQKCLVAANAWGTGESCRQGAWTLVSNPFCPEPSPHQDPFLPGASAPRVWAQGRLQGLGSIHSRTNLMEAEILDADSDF
# Protocol: Prior to transfection, cell culture media was replaced with DMEM + 10%FBS for mSMO transfection and with DMEM + 10%BCS for ShhN transfection. The transfected dish was incubated for approximately 24 hours at 37°C. For the production of ShhN conditioned medium, the culture medium from ShhN-transfected HEK293T cells was collected, aliquoted in single use 1.5 mL Eppendorf tubes and either used fresh or stored at -20°C.
# HEK293T cells transiently transfected with mSMO were lifted with trypsin (0.25%) and replated at 6×10^4 cells in 80 μL DMEM + 10%FBS per well in a 96 well tissue-culture treated plate (Falcon, 353219). The plate was incubated at 37°C for 24 hours. Serial dilutions of test compounds (10x final concentrations) were prepared in culture media. 10 μL of diluted compounds or control media were added to the plate after which the plate was incubated at 37°C for 10 min. […] Following at least 1.5 hours incubation at 37°C in 5% CO2, cells were lifted by vigorous pipetting, transferred to conical bottom 96-well plates, and centrifuged at 400 × g for 5 min at 4°C. Supernatant was discarded, cells were re-suspended in 300 μL of PBS + 0.5% BSA (freshly prepared), and the plate was analyzed with Guava benchtop flow cytometer. The results were interpreted with FlowJo software (version v10.1). Dose response curves were constructed in Prism 6 (GraphPad Software, La Jolla, CA).
# [4] = test system: Gli-target genes in MB-PDX cells; assay: qRT-PCR of Gli-target genes in MB-PDX cells in vitro; format: cell-based, human; conditions: 10 uM in-vitro, 24 hours
# Description: The results from three independent replicates were used for quantitative analysis and are represented in Fig 7c.
# Y-axes show the relative expression levels of mRNA of target genes with respect to mRNA of GAPDH gene.
# [5] = test system: nuclear Gli-1 in DAOY cells; assay: Western blot quantitation of nuclear Gli-1; format: cell-based, human; conditions: NS conditions, 24-hour treatment, 5 μM (Fig 6f, S4 Fig)
# Protocol: (§1) Nuclear fractions were prepared from cell pellets according to the method of Schreiber et. al.[81] with minor modifications. […] After 24 hours, cells were lifted from the wells by pipetting, transferred to 1.5 mL Eppendorf tubes, centrifuged at 10,000 x g for 1 minutes at 4°C, and washed once in PBS. Following supernatant removal by vacuum, cells were lysed using a plasma membrane lysis buffer [10 mM HEPES; pH 7.5, 10 mM KCl, 0.1 mM EDTA, 1 mM dithiothreitol (DTT), 0.5% Nonidet P‐40 and 0.5 mM PMSF along with 1× protease inhibitor cocktail (Sigma)] and allowed to swell on ice for 15‐20 min with intermittent mixing. Next, tubes were vortexed to disrupt cell membranes and then centrifuged at 12,000 × g at 4°C for 10 min. […] The pelleted nuclei were washed with the plasma membrane lysis buffer and re-suspended in the nuclear extraction buffer [20 mM HEPES (pH 7.5), 400 mM NaCl, 1 mM EDTA, 1 mM DTT, 1 mM PMSF with 1× protease inhibitor cocktail] and incubated on ice for 30 min. The tubes were centrifuged at 12,000 ×g for 25 min at 4°C and the supernatant (now containing the soluble fraction of the cell nuclei) was collected. Total protein concentrations were determined using the Bio-Rad Protein Assay (Bio-Rad, Hercules, CA). Nuclear extracts containing the total of 40 μg protein were separated on a 10% Tris-SDS PAGE gel (Bio-Rad Mini-PROTEAN® TGX). Gels were transferred on nitrocellulose membranes using Bio-Rad TransBlot system, after which the membranes were blocked in the blocking buffer [5% nonfat dry milk in 1× Tris Buffer Saline + 0.1% Tween 20 (TBST)] for 2 hours at room temperature. Following blocking, the membranes were washed four times with TBST (5 minutes gentle rocking per wash) and incubated overnight with primary antibody Rabbit anti-Gli-1 (Cell signaling, #C68H3); 1:250 dilution in TBST-Milk at 4°C with gentle rocking. Membranes were washed three times with TBST for 5 min each.
# [6] = test system: nuclear Gli-1 in MB-PDX cells; assay: Western blot quantitation of nuclear Gli-1; format: cell-based, human; conditions: NS conditions, 24-hour treatment, 5 μM (Fig 6f, S4 Fig)
# Protocol: as §1
# [7] = test system: Mast/stem cell growth factor receptor Kit (KIT_HUMAN); design: method as in earlier work; conditions: S2/S3 Table; ref [1] Davis MI et al., Nat Biotechnol. 2011; cited from earlier work
# [8] = test system: Platelet-derived growth factor receptor alpha (PGFRA_HUMAN); design: method as in earlier work; conditions: S2/S3 Table; ref [1] Davis MI et al., Nat Biotechnol. 2011; cited from earlier work
# MB-PDX xenograft = assay: Subcutaneous patient-derived medulloblastoma xenograft model, tumor volume; format: in vivo, mouse; conditions: NSG mice, 40 mg/kg daily intraperitoneally from day 7, 42 days
# Protocol: Tumor volumes were monitored three times a week in the course of treatment.
# NSG mice, 4–6 weeks old, were injected subcutaneously at shoulders and flanks with 1 × 10^6 viable MB-PDX cells in 1:1 HBSS and gelatinous protein mixture Matrigel. […] The tumor size was measured three times a week with a caliper, and tumor volumes were calculated according to the formula (length × width × width × 0.5). At day 42 post-grafting, all mice were euthanized by isoflurane inhalation and cervical dislocation.
compound,measurement,setting,value
Cc1cn(-c2cc(NC(=O)c3ccc(C)c(Nc4nccc(-c5cccnc5)n4)c3)cc(C(F)(F)F)c2)cn1 [Nilotinib],Gli-1 mRNA expression versus vehicle treated cells,[1],significant reduction in Gli-1 mRNA expression
same,IC50,MB-PDX cells,5 µM
same,Kd/Ki Value,[2],0.0419 µM
same,"Trough concentration, Cmin",[3]; clinically achievable concentrations,1600 to 2600 nM
same,Average Cmin,[3]; human plasma,2600 nM
same,Cmax,[3]; human plasma,3300 nM
same,Trough concentration (Cmin) in human plasma,[3]; standard dosing of 400 mg twice daily,1650 to 2380 nM
same,Displacement of BODIPY-Cyclopamine from SMO (in words),mSMO,displace BODIPY-Cyclopamine
same,IC50,"mSMO; HEK293T cells transfected with mSMO, n = 2, estimated, read-out: SMO binding IC50",3.11 µM
same,mRNA expression of Gli-target genes,[4],"decreased expression of GLI1, NMYC, HHIP and BCL2 genes"
same,"Nuclear Gli-1, mean, % of untreated samples",[5],46%
same,"Nuclear Gli-1, mean, % of untreated samples",[6],41%
same,Kd/Ki Value,[7],0.029 µM
same,Kd/Ki Value,[8],0.18 µM
same,Tumor volume versus vehicle-treated group,MB-PDX xenograft,significantly smaller tumors
